In patent publication US12590096B2, “Imidazo[2,1-f][1,2,4]triazin-4-amine as TLR8 agonists” (BeOne Medicines | GmbH, priority 2019, dated 2026) one finds EC50 data, which are given here for six compounds.

pEC50: −log10 of the molar value. Where two headings read alike, the source gives them in different places.

The test system of test [1] is PBMC (peripheral blood monocyte). Description: PBMC determination: cytokines in culture supernatant measured by HTRF. The conditions noted are these: human PBMC, 24 h. The test is classed as cell-based. Here is the method:
Determination of PBMC (Peripheral Blood Monocyte) Cell Preparation, Separation and Culture
Human whole blood was collected from healthy volunteers using BD Vacutainer® Lithium Heparin Tubes. PBMCs were prepared using Ficoll separation medium (GE Healthcare) by SopMate™ (STEMCELL). The cell survival rate was over 85% as monitored by Countstar. PBMCs were cultured in RPMI 1640 (Gibco) 10% (v/v) FBS (Gibco), 1×MEM NEAA (Gibco), 1× GlutaMAX (Gibco), 1 mM sodium pyruvate (Gibco), 50 uM 2-mercaptoethanol (sigma), and 100 U/ml penicillin-streptomycin (Thermo fisher Scientific).
PBMCs were plated into 96-well plates (costar 3894) with a density of 2×10^5 cells/well. Then, TLR7/8 compound was added, and serial dilution was carried out at ten points. The final concentration in 0.1% DMSO/RPMI 1640 ranged from 1 nM to 10 μM. Then, the plates were incubated in 5% CO2 at 37° C. for 24 h.
HTRF (Homogeneous Time-Resolved Fluorescence)
After the specified time point, according to the manufacturers recommendations, the cytokines in the cell culture supernatant were measured by Human IL6 kit (cisbio) and Human TNF alpha kit (cisbio). The EC50 of each compound was determined by calculating the maximum activation percentage identified using Resiquimod or Motolimod.
For orientation: Time-resolved FRET reads energy transfer from a long-lived donor to a nearby acceptor.

Test [2] has as its target T1, human TLR 8 protein in HEK-blue hTLR 8 tool cell line (Homo sapiens, UniProt Q9NR97).
T1 construct: expressed in transfected cells; host or cells: HEK293 (HEK-Blue hTLR8)
T1 sequence (Q9NR97 27-1041): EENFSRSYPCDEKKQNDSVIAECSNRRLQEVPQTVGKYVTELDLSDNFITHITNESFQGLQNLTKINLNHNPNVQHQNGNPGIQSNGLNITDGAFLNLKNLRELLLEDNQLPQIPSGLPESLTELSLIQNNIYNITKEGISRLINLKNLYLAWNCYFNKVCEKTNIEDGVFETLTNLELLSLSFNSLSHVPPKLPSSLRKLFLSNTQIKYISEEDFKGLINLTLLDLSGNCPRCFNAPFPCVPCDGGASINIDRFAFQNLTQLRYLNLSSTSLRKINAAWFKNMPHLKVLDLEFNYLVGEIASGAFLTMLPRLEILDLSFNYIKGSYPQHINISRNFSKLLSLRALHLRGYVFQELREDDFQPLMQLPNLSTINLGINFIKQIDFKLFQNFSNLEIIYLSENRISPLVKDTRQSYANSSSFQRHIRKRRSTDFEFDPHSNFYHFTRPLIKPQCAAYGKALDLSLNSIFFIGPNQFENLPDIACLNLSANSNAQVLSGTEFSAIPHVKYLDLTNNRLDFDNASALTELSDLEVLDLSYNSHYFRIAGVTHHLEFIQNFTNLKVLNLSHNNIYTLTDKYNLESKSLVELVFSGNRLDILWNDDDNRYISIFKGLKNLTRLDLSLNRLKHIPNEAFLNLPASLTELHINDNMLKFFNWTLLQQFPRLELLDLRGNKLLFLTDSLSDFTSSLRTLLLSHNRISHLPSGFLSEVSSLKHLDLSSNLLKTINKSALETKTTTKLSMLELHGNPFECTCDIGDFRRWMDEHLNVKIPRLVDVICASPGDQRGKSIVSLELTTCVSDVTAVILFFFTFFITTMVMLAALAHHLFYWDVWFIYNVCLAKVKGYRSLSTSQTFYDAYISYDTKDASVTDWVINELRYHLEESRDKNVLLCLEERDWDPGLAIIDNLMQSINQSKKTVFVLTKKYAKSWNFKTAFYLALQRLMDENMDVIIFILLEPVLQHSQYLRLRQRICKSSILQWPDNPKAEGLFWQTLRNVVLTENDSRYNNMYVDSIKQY
Nature of the test: TLR8 stimulation determined by HEK-Blue Detection (NF-κB/SEAP reporter). It counts as cell-based. The note with it: HEK-Blue hTLR8 cells, 16 h incubation, relative to maximum activation by Resiquimod or motolimod; read-out: EC50 (nmol). The source says:
TLR8 Stimulation Determined by HEK-Blue Detection
This assay was designed to study the stimulation of human TLR 8 protein in HEK-blue hTLR 8 tool cell line by monitoring the activation of NF-κB. HEK-blue hTLR8 cells were obtained by co-transfection of hTLR8 gene and optimized secretory embryonic alkaline phosphatase (SEAP) reporter gene into HEK293 cells. SEAP reporter gene was put under the control of […] minimal promoter fused with five NF-κB and AP-1-binding sites. NF-κB and AP-1 were activated by stimulation with TLR 8 ligand, thus inducing the expression of SEAP. The level of SEAP can be easily determined by HEK-Blue Detection (a cell culture medium that allows real-time detection of SEAP). HEK-Blue Detection comprises all nutrients needed for cell growth and specific SEAP color substrates. The hydrolysis of substrate by SEAP produces purple/blue color which can be measured by spectrophotometer.
When growing to 50-80% confluence, HEK-Blue hTLR7/8 cells were plated into 96-well plates (costar 3599) at a density of 40,000 cells/well. Then, the compound serially diluted at 10 points with a final concentration ranging from 1 nM to 10 μm in 0.1% DMSO/HEK-Blue Detection was added. The plates were then incubated in 5% CO2 at 37° C. for 16 h. Optical density at 620-655 nm was read on BMG PHERAstar FSX instrument. The EC50 of each compound was determined by calculating the maximum activation percentage identified using Resiquimod or motolimod.
The EC50 of the tested compound of the present invention is as follows.

The mark [3] stands for this setting: Human IL6 kit (HTRF), read-out: IL6 (EC50).
[4] abbreviates: Human TNF alpha kit (HTRF), read-out: TNF-alpha (EC50).

What is called pEC50 is the EC50 on a negative log10 scale, so that one unit is a factor of ten. On to `CCC[C@@H](C)Oc1nc(N)c2ncc(CC3CCNCC3)n2n1` [Compound B7, (R)-2-(pent-2-yloxy)-7-(piperidin-4-ylmethyl)imidazo[2,1-f][1,2,4]triazin-4-amine], for which the pEC50 in test [1] (setting [3]) was less than 5.00; in test [1] (setting [4]) it was less than 5.00; in test [2], 5.89.
In the case of `CCC[C@H](C)Oc1nc(N)c2ncc(CC3CCN(CCNC)CC3)n2n1` [Compound B12, (S)-7-((1-(2-(methylamino)ethyl)piperidin-4-yl)methyl)-2-(pent-2-yloxy)imidazo[2,1-f][1,2,4]triazin-4-amine], the pEC50 in test [1] (setting [3]) is 7.85; in test [1] (setting [4]), 8.00; in test [2] it was 7.72.
As for `CCC[C@H](C)Oc1nc(N)c2ncc(CC3CCCNCC3)n2n1` (stereo partly drawn) [Compound B25, 7-(azepan-4-ylmethyl)-2-(((S)-pent-2-yl)oxy)imidazo[2,1-f][1,2,4]triazin-4-amine], the pEC50 in test [1] (setting [3]) is 6.63; in test [1] (setting [4]) it was 6.34; in test [2], 7.20.
On the same counts, the results for `CCC[C@H](C)Oc1nc(N)c2ncc(CC3CCNC(C)C3)n2n1` (stereo partly drawn) [Compound B27, 7-((2-methylpiperidin-4-yl)methyl)-2-(((S)-pent-2-yl)oxy)imidazo[2,1-f][1,2,4]triazin-4-amine] are 6.64, 6.49 and 7.70.
On the same counts, the results for `CCC[C@H](C)Oc1nc(N)c2ncc(C[C@H]3C[C@@H](N)C3)n2n1` [Compound B30, 7-(((1s,3S)-3-aminocyclobutyl)methyl)-2-(((S)-pent-2-yl)oxy)imidazo[2,1-f][1,2,4]triazin-4-amine] are 7.07, 6.82 and 7.59.
For `CCC[C@H](C)Oc1nc(N)c2ncc(CC3CCN(CCN)CC3)n2n1` [Compound B38, (S)-7-((1-(2-aminomethyl)piperidin-4-yl)methyl)-2-(pent-2-yloxy)imidazo[2,1-f][1,2,4]triazin-4-amine] the same measures were 7.55, 7.41 and 7.33.
